From patent US10968214B2, “KRas G12C inhibitors” (Eli Lilly and Company, priority 2018, dated 2021)
Like-named read-outs stand apart in the source and are kept apart here.

Experiments:
Assay type in all cases: cell-based
H23 [1] = assay: CellTiterGlo Cell Proliferation Assay, H23; settings: Homo sapiens, NCI-H23, KRas G12C, Lung, 96 hr
Experimental: (§1) A panel of tumor cell lines harboring KRas G12C or other KRas mutations are collected (Table 6). All cell lines are from ATCC or other sources indicated.
(§2) Typically cells are cultured in RPMI1640 or Dulbecco's modified Eagle's medium (DMEM, GIBCO) supplemented with 10% FBS (GIBCO, Invitrogen). For 2D culture cells (4×10^3/well) maintained in growth medium described above, are plated onto 96 well tissue culture plates Corning® Cat. 3603) a day before the treatment. For 3D culture 8000 cells/well are seeded onto 96 well ultra-low attachment tissue culture plates (Corning, #3474). The cells are treated compound for 96 hr, and then are analyzed for viability using the CellTiterGlo® Luminescent Cell Viability Assay® (Promega #G7572 for 2D and Promega #G9683 for 3D cultures) according to manufacturer's instructions and an EnVision™ plate reader. Nonlinear regression and sigmoidal dose-response curves are used to calculate the half maximal inhibitory concentration (IC50) with GraphPad Prism 4® software.

H1373 = assay: CellTiterGlo Cell Proliferation Assay, H1373; settings: Homo sapiens, NCI-H1373, KRas G12C, Lung, 96 hr
Experimental: as §1, §2

H23 [2] = assay: Combination 4 day growth assay (Cell TiterGlo), H23; settings: Homo sapiens, NCI-H23, 96 h, single treatment, read-out: Absolute IC50
Experimental: (§3) Cell lines for this study are obtained from ATCC and grown under ATCC recommended conditions, except for LXFA-983L, which is obtained from Oncotest/Charles Rivers Laboratories, Wilmington, Mass. and D122-96, which is obtained from L. Eisenbach (Weizman Institute of Science, Rehovot, Israel)—both grown under recommended conditions. […] The proliferation assay is performed as a 4 day growth assay using Cell TiterGlo® as the readout. Briefly, cells are plated in 96-well cell culture plates and allowed to adhere overnight at 37° C. The following day, cells are treated with compounds, either single treatments or combination treatments. First, the testing compounds are serially diluted in DMSO, followed by dilution into media as a 5× concentration with 1% DMSO, and finally added to cells in media to dilute to 1×. The cells are incubated at 37° C. for 4 more days. At the end of the incubation period, Cell TiterGlo® reagent is mixed and added to the wells. After 10 minutes, the luminescence is read by a Perkin Elmer Envision instrument. Absolute IC50 values generated by a 4-parameter logistics model for the single and combination treatments are generated, followed by combination indexes for each combination treatment and cell line. The combination IC50 values are adjusted based on the total concentration of each compound when added together. […] The combination index (CI) measures the degree to which the potency of a combination therapy differs from the expected-if-additive potency and is based on the Loewe definition of additivity.
(§4) [formula] Where • CAy and CBy are the concentrations of therapies A and B that produce an effect, y, when given in combination • ICAy and ICBy are the concentrations of A and B that produce an effect, y, when given individually The biological interpretation of the combination index is as follows: synergistic if the combination index <0.5, additive if the combination index is between 0.5 and 2, and antagonistic if the combination index is >2.

SW1573 [3] = assay: Combination 4 day growth assay (Cell TiterGlo), SW1573; settings: Homo sapiens, 96 h, single treatment, read-out: Absolute IC50
Experimental: as §3, §4

Calu-6 = assay: CellTiterGlo Cell Proliferation Assay, Calu-6; settings: Homo sapiens, KRas Q61K, lung, 96 hr
Experimental: as §1, §2

H2122 = assay: Combination 4 day growth assay (Cell TiterGlo), H2122; settings: Homo sapiens, NCI-H2122, 96 h, single treatment, read-out: Absolute IC50
Experimental: as §3, §4

SW1573 [4] = assay: CellTiterGlo Cell Proliferation Assay, SW1573; settings: Homo sapiens, KRas G12C, Lung, 96 hr, read-out: IC50 (μM) in 2 D cell proliferation
Experimental: as §1, §2

[5] = read-out: IC50 (μM) in 2 D cell proliferation
[6] = read-out: IC50 (μM) in 3 D spheroid cell proliferation

- IC50 (H1373; [5]): 0.209 µM
- IC50 (H1373; [6]): 0.02 µM
- IC50 (SW1573 [3]): > 10000 nM
- IC50 (Calu-6; [5]): 12.1 µM
- IC50 (Calu-6; [6]): 19.5 µM
- IC50 (H2122): 2870 nM
- IC50 (SW1573 [4]): 16.7 µM
Compound: C=CC(=O)N1CCN(c2ncnc3c(F)c(-c4ccc(F)c5sc(N)nc45)c(Cl)cc23)CC1 [Example 1, 1-{4-[7-(2-Amino-7-fluoro-1,3-benzothiazol-4-yl)-6-chloro-8-fluoroquinazolin-4-yl]piperazin-1-yl}prop-2-en-1-one]
- IC50 (H23 [1]; [5]): 0.08 µM
- IC50 (H23 [1]; [6]): 0.031 µM
- IC50 (H23 [2]): 235 nM
